US20130203830A1, “Compounds for Prevention of Cell Injury” (SULFATEQ B.V., priority 2010, published 2013)
“Also recorded” adds a separate entry of the source.

Legend:
[1] = system: SMAC cells; assay: Survival of SMAC cells after hypothermia (MTS assay / cell counting); format: cell-based, rat; conditions: SMAC cells, 24 h at 3° C., substance added 15 min before hypothermia
Procedure: Cell lines used included NRK (normal rat kidney cells), DDT-1 (hamster ductus deferens muscle cells) and A7R5 (rat vascular smooth muscle cells) cultured in DMEM (Gibco, 41966, UK) and SMAC (rat smooth muscle aortic cells) and THMC (transformed human mesangial cell) cultured in DMEM/F12 (Gibco, E12-719F). All media were supplied with 10% (vol/vol) fetal calf serum and 1% penicillin-streptomycin and cultured at 37° C. in 5% CO2 in 25 cm^2 or 75 cm^2 flasks. For hypothermia experiments, cells were plated in 6 or 96 wells plates and grown to confluence. Thereupon, cells were placed at 3° C. for up to 24 hours. Cell survival was measured by counting of trypan blue stained cells or MTS assay, which measures the number of viable cells. For the latter, 20 μl of MTS solution was added to each well and cells were subsequently placed in the incubator at 37° C. in 5% CO2 for 3 hr before assessing the cell survival by measuring absorption using a microplate reader at 490 nm.
MTS assay was performed to investigate cell survival after blocking serotonin transporter and hypothermic treatment.

[2] = system: SMAC cells; assay: Caspase 3/7 assay in hypothermic SMAC cells; format: cell-based, rat; conditions: serotonin 5 nmol/L
[3] = system: SMAC cells; assay: H2S content of SMAC cell homogenates (methylene blue method); format: cell-based, rat; conditions: hypothermic SMAC cells 24 h, 3° C., pretreatment 15 min, 1.3 μM
Procedure: Methylene blue method for H2S detection was applied to quantitatively measure the H2S production. Cells were washed with PBS, scraped and centrifuged for 60 sec at 1000 rpm. After removal of the supernatant, zinc acetate 1% in water (200 μl) was added to the cell sediments and the cells were disrupted by small glass beads and vortexed for 20 seconds. Diamine-ferric solution was prepared by mixing 100 μl of a 400 mg N,N-dimethyl-p-phenylenediamine dihydrochloride dissolved in 10 ml 6M HCl and 100 μl of 600 mg ferric chloride in 10 ml 6M HCl. Two hundred μl of this mixture was added to the cell suspension and after an incubation time of 30 min at 37° C. and centrifugation, the amount of methylene blue formed in the supernatant was measured at a wavelength of 670 nm. To measure H2S content of supernatant, the same procedure was repeated for the cell free medium of cells incubated at both 37° C. and 3° C. Blanks were made following the same procedure without cells or using fresh medium. The concentration of H2S was calculated by extrapolation using a standard curve obtained from different concentrations of Methylene blue and spectrophotometric measurement at a wavelength of 670 nm. The amount of H2S present was calculated on the basis that every mole of methylene blue formed in this reaction contains 32 g (1 mole) of captured sulfur.

[4] = system: Cystathionine-β-synthase (CBS); assay: CBS expression in SMAC cells (western blot); format: cell-based, rat; conditions: serotonin 1.3 μM
Procedure: To investigate the potential of serotonin in upregulating CBS expression in cells, SMAC cells were cultured in a 6 well plate one day before serotonin treatment. After reaching confluence, cells were incubated with 1.3 μM serotonin in SMAC cell complete medium. Control wells only contained the medium. At every time point (5, 10, min), cells were washed with PBS, lysed using RIPA buffer and western blotted to study the change in CBS expression level.
To investigate the role of Cystathione beta-synthase activity in the protective effect of serotonin the expression of CBS was reduced by applying a predesigned siRNA (sc-60336, Santa Cruz, USA) and compared to a silencer negative control (Ambion, AM4644, Huntingdon, UK). DDT-1 and SMAC cells at 60-80% confluence were seeded in 96 or 6 well plates in antibiotic-free normal growth medium supplemented with FCS. […] The protein concentration was measured by Bradford assay in all the samples. […] Proteins were transferred to a nitrocellulose membrane and detected by West Pico Chemiluminescent Substrate (supersignal), photographed and analyzed with genetool software (version 3.08, SynGene, England). […]

[5] = system: CBS enzyme isolated from DDT-1 cells; assay: Activity of isolated CBS enzyme (H2S production); format: biochemical, hamster; conditions: both at 37° C. and 3° C.
Procedure: To examine the potential of serotonin to act as a cofactor or allosteric activator of CBS, the enzyme was isolated from DDT-1 cells. In brief, DDT-1 cells were lyzed by a non-denaturing buffer. CBS antibody (1 μg/ml) was diluted in coating solution and 100 μl of it was added to each well of a microplate. The plates were left at 4° C. over night. The wells were washed with PBS three times for 2 min and 10 μg/ml of the protein was added to each well and the microplate was left at 4° C. for another 24 hr and later washed three times with PBS. The substrates cysteine and homocysteine at the concentration of 10 μmol each were mixed and 100 μl was added to each well in the absence or presence of PLP (pyridoxal-5-phosphate) or serotonin (30 nmol) in PBS.

Compound: NCCc1c[nH]c2ccc(O)cc12 [serotonin, Serotonin]
- protection against hypothermic cell death / reduction in number of cells [1]: concentration-dependently prevented; also recorded: Protection of hypothermic cell death
- apoptosis (caspase 3/7) in hypothermic SMAC cells [2]: completely and dose dependently attenuated
- H2S content [3]: 1.4±0.2 μmoles per 10̂6 cells
- increase of H2S content ([3]; vs untreated): 8 fold
- induction of CBS expression ([4]; SMAC cells, 37° C., 15 min): 4 fold
- CBS expression in 37° C. SMAC cells [4]: upregulates CBS expression
- activity of isolated CBS [5]: increase the activity
